Like-named read-outs stand apart in the source and are kept apart here.
Key:
Experiment in all cases: Kinase selectivity, P33-radiolabeled assay
Type in all cases: biochemical
Settings in all cases: 10 μM ATP
[1] = target: T1, ROCK1 (Homo sapiens, UniProt Q13464)
T1 construct: purchased Reaction Biology Corp
Method in brief: (§1)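 Each enzyme was exposed to 10 μM compound, with duplicate measurements, in reactions containing 10 μM ATP. Numbers are remaining activity as a percent of the vehicle (DMSO) signal.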

[2] = target: T2, CAMK2d (Homo sapiens, UniProt Q13557)
T2 construct: purchased Reaction Biology Corp
Method in brief: as §1

[3] = target: T3, EPHA8 (Homo sapiens, UniProt P29322)
T3 construct: purchased Reaction Biology Corp
T3 sequence (P29322 28-1005): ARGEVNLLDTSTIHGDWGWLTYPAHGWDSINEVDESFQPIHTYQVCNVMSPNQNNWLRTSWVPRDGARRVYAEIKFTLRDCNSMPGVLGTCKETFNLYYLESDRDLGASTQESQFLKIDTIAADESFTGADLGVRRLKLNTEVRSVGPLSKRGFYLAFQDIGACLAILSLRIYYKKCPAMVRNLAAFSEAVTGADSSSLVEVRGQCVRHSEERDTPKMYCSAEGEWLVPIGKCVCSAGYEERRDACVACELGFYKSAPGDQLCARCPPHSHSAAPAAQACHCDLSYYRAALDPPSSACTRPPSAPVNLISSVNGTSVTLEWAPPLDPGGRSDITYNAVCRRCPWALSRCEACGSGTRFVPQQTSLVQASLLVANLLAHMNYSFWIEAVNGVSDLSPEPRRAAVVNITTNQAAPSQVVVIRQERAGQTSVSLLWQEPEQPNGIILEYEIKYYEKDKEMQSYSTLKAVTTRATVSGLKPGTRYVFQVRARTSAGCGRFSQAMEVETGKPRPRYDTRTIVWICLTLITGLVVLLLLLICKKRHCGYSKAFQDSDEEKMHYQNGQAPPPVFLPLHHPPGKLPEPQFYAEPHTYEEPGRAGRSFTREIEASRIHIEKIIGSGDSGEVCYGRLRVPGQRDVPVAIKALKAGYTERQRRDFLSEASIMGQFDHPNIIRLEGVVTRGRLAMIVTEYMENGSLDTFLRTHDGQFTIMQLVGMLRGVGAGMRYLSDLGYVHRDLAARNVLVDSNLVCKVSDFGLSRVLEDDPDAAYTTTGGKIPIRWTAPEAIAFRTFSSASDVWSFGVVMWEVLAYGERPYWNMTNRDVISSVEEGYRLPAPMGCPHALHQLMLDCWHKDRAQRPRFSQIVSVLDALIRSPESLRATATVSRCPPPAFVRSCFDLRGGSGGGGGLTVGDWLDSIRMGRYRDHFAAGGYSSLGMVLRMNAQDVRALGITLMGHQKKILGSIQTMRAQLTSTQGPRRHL
Method in brief: as §1

[4] = target: T4, TYK2 (Homo sapiens, UniProt P29597)
T4 construct: purchased Reaction Biology Corp
Method in brief: as §1

[5] = target: T5, TBK1 (Homo sapiens, UniProt Q9UHD2)
T5 construct: purchased Reaction Biology Corp
T5 sequence (Q9UHD2 1-729): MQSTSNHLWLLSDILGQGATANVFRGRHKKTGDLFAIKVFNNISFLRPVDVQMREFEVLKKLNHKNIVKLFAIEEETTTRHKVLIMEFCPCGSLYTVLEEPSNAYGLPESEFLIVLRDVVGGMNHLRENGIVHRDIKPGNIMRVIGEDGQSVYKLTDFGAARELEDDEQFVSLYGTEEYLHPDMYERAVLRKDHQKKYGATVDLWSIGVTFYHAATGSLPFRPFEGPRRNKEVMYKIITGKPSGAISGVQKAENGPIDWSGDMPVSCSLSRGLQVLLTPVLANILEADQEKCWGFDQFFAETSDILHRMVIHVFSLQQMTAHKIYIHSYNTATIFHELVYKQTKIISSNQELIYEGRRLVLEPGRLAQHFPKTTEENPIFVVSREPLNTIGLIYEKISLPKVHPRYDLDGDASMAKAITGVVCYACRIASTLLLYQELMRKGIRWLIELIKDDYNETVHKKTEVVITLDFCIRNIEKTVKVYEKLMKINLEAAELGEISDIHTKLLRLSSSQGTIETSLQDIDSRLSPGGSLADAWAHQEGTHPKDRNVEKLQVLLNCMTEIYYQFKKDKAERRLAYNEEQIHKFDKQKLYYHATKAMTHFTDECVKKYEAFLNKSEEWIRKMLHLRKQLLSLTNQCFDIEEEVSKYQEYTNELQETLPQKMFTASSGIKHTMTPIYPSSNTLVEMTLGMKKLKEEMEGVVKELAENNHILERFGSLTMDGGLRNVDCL
Method in brief: as §1

[6] = target: T6, DYRK2 (Homo sapiens, UniProt Q92630)
T6 construct: purchased Reaction Biology Corp
T6 sequence (Q92630 1-601): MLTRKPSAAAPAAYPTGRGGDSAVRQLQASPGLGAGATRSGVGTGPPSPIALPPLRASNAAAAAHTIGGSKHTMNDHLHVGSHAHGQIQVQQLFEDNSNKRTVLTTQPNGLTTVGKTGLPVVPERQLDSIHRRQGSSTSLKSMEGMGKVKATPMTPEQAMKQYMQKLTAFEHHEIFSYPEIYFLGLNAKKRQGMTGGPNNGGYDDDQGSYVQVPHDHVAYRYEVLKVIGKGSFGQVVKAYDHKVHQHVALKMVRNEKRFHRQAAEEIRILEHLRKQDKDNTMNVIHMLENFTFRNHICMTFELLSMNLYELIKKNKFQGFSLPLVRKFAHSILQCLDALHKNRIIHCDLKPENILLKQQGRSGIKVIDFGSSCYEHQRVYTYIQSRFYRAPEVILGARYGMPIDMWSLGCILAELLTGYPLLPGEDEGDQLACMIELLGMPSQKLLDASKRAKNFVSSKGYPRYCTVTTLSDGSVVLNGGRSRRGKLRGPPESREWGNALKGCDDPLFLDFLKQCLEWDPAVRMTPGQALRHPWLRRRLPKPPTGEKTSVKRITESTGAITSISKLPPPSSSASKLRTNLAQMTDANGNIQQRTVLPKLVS
Method in brief: as §1

[7] = read-out: % Enzyme Activity (relative to DMSO controls) AVG
[8] = read-out: % Enzyme Activity (relative to DMSO controls) Data 1
[9] = read-out: % Enzyme Activity (relative to DMSO controls) Data 2

T4 sequence (P29597 whole entry): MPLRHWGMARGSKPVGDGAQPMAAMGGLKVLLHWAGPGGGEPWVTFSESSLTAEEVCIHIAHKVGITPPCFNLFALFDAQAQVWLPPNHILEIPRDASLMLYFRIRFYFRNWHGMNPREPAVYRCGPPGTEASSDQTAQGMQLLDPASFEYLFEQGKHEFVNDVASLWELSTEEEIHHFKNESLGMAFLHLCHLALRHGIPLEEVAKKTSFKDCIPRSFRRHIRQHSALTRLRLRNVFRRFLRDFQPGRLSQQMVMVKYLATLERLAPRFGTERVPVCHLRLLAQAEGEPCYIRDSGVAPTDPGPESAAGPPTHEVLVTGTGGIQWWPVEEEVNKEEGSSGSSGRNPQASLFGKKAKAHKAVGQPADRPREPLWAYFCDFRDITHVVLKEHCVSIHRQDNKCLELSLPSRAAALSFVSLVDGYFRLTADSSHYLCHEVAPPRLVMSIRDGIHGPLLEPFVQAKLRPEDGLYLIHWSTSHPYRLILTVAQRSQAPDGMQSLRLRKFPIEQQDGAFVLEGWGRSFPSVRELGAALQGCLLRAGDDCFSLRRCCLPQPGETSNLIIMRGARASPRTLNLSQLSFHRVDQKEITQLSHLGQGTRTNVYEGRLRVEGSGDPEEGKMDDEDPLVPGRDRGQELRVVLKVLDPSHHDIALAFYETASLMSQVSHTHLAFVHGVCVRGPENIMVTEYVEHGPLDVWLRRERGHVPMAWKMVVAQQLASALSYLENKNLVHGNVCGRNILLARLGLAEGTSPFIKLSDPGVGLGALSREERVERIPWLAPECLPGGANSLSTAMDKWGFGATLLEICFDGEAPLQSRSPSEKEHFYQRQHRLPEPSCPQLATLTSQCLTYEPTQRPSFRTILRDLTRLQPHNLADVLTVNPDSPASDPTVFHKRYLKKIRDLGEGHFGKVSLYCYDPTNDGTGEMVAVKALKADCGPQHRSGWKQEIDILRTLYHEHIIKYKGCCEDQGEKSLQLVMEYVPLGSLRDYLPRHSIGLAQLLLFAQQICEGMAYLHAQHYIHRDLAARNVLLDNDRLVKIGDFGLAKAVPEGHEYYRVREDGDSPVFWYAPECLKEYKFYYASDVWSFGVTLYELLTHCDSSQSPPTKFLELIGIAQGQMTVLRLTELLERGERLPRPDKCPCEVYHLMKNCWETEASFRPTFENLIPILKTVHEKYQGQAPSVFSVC
T2 sequence (Q13557 whole entry): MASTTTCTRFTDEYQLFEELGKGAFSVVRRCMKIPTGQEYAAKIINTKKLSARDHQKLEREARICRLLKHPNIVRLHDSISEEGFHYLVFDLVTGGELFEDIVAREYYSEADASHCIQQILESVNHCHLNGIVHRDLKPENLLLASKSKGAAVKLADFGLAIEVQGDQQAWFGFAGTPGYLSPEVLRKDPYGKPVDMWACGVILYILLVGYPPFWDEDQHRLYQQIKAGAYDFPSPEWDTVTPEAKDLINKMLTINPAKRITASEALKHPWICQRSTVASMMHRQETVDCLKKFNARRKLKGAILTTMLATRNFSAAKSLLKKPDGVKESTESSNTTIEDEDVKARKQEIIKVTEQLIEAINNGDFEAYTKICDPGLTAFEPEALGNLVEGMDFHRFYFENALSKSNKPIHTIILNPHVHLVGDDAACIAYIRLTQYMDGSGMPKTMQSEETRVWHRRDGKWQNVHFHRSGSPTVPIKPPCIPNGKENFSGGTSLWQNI
T1 sequence (Q13464 whole entry): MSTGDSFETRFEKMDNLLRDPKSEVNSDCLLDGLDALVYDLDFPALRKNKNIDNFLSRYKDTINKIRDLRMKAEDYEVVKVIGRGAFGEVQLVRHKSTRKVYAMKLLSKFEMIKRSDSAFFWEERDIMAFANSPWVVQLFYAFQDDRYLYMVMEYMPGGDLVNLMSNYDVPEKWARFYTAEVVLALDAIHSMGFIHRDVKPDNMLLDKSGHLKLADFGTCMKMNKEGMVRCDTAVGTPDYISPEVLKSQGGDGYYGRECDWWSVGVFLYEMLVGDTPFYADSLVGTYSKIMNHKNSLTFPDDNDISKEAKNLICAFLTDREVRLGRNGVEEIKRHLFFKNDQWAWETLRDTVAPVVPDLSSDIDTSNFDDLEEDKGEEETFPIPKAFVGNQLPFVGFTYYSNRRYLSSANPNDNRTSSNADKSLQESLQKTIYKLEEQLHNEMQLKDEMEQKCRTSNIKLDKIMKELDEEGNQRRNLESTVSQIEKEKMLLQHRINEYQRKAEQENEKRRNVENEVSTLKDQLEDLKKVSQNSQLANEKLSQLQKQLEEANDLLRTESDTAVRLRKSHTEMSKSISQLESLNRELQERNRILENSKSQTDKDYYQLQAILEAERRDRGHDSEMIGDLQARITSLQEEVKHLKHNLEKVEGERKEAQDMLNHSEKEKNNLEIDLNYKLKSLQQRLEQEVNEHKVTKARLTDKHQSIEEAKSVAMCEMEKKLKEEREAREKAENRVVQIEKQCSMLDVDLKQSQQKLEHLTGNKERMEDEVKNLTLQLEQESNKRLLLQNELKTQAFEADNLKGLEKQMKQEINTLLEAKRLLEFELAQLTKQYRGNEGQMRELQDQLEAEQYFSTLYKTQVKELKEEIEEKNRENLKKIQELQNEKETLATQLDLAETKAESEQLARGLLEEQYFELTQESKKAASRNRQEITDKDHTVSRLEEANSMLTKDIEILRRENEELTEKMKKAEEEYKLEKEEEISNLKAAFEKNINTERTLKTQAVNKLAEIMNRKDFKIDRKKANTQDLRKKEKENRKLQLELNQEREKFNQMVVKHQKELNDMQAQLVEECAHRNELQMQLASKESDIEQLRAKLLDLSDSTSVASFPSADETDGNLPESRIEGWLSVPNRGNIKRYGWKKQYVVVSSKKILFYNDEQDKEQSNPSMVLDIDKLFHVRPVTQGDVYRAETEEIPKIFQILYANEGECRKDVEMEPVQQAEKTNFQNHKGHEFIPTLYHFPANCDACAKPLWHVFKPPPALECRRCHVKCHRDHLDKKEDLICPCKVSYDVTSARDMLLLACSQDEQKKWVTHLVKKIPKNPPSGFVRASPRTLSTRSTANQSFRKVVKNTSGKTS

**Q.** What does the source list for `CC(C)(C)C(=O)N1N=CC[C@H]1c1ccccc1` [GSK′963]?
**A.** remaining activity at 10 µM [1, 7]: 105%; remaining activity at 10 µM [1, 8]: 103%; remaining activity at 10 µM [1, 9]: 106%; remaining activity at 10 µM [2, 7]: 108%; remaining activity at 10 µM [2, 8]: 109%; remaining activity at 10 µM [2, 9]: 108%; remaining activity at 10 µM [3, 7]: 96.6%; remaining activity at 10 µM [3, 8]: 97.5%; remaining activity at 10 µM [3, 9]: 95.7%; remaining activity at 10 µM [4, 7]: 103%; remaining activity at 10 µM [4, 8]: 104%; remaining activity at 10 µM [4, 9]: 101%; remaining activity at 10 µM [5, 7]: 86%; remaining activity at 10 µM [5, 8]: 86.8%; remaining activity at 10 µM [5, 9]: 85.3%; remaining activity at 10 µM [6, 7]: 97.7%; remaining activity at 10 µM [6, 8]: 96.9%; remaining activity at 10 µM [6, 9]: 98.4%

Reference: PMC4979471 (Cell Death Discovery, 2015)
